The source of these data is patent US11173151B2, “Substituted triazole derivatives and uses thereof” (BAYER AKTIENGESELLSCHAFT, priority 2017, dated 2021).

One assay addresses T1, human V1a receptor (Homo sapiens, UniProt P37288).
T1 construct: expressed in transfected cells; host or cells: CHO K1 (ATCC), also stably transfected with a modified aequorin
Description: Cellular in vitro assay for determining vasopressin receptor activity, V1a receptor cell line (CHO, aequorin luminescence). It is filed as cell-based. As to conditions: for IC50: CHO cell line transfected with human V1a receptor, [Arg]-vasopressin at EC50 concentration, read-out: IC50 hV1a; for ratio IC50 hV2/hV1a: selectivity ratio IC50 hV2 / IC50 hV1a. As to the method: (§1) B-1. Cellular In Vitro Assay for Determining Vasopressin Receptor Activity
(§2) The identification of agonists and antagonists of the V1a and V2 vasopressin receptors from humans, rats and dogs as well as the quantification of the activity of the compounds of the invention is carried out using recombinant cell lines. These cell lines originally derive from a hamster's ovary epithelial cell (Chinese Hamster Ovary, CHO K1, ATCC: American Type Culture Collection, Manassas, Va. 20108, USA). The test cell lines constitutively express the human, rat or dog V1a or V2 receptors. In case of the Gαq-coupled V1a receptors, cells are also stably transfected with a modified form of the calcium-sensitive photoproteins aequorin (human and rat V1a) or obelin (dog V1a), which, after reconstitution with the cofactor coelenterazine, emit light when there are increases in free calcium concentrations [Rizzuto R, Simpson A W, Brini M, Pozzan T, Nature 358, 325-327 (1992); Illarionov B A, Bondar V S, Illarionova V A, Vysotski E S, Gene 153 (2), 273-274 (1995)]. The resulting vasopressin receptor cells react to stimulation of the recombinantly expressed V1a receptors by intracellular release of calcium ions, which can be quantified by the resulting photoprotein luminescence. The Gs-coupled V2 receptors are stably transfected into cell lines expressing the gene for firefly luciferase under control of a CRE-responsible promoter. Activation of V2 receptors induces the activation of the CRE-responsive promoter via cAMP increase, thereby inducing the expression of firefly luciferase. The light emitted by photoproteins of V1a cell lines as well as the light emitted by firefly luciferase of V2 cell lines corresponds to the activation or inhibition of the respective vasopressin receptor. The bioluminescence of the cell lines is detected using a suitable luminometer [Milligan G, Marshall F, Rees S, Trends in Pharmacological Sciences 17, 235-237 (1996)].
Vasopressin V1a Receptor Cell Lines:
On the day before the assay, the cells are plated out in culture medium (DMEM/F12, 2% FCS, 2 mM glutamine, 10 mM HEPES, 5 μg/ml coelenterazine) in 384-well microtiter plates and kept in a cell incubator (96% humidity, 5% v/v CO2, 37° C.). On the day of the assay, test compounds in various concentrations are placed for 10 minutes in the wells of the microtiter plate before the agonist [Arg]-vasopressin at EC50 concentration is added. The resulting light signal is measured immediately in a luminometer.
(§3) Table 1A below lists individual IC50 values for the compounds of the invention (including racemic mixtures as well as separated enantiomers) that were obtained from cell lines transfected with the human V1a or V2 receptor: […]

A further assay addresses T2, human V2 receptor (Homo sapiens, UniProt P30518).
T2 construct: expressed in transfected cells; host or cells: CHO K1 (ATCC) expressing firefly luciferase under a CRE-responsive promoter
Description: Cellular in vitro assay for determining vasopressin receptor activity, V2 receptor cell line (CHO, CRE-luciferase). It is filed as cell-based. As to conditions: CHO cell line transfected with human V2 receptor; [Arg8]-vasopressin at EC50 concentration, 3 hours; read-out: IC50 hV2. As to the method:
as §1, §2
Vasopressin V2 Receptor Cell Lines:
On the day before the assay, the cells are plated out in culture medium (DMEM/F12, 2% FCS, 2 mM glutamine, 10 mM HEPES) in 384-well microtiter plates and kept in a cell incubator (96% humidity, 5% v/v CO2, 37° C.). On the day of the assay, test compounds in various concentrations and the agonist [Arg^8]-vasopressin at EC50 concentration are added together to the wells, and plates are incubated for 3 hours in a cell incubator. Upon addition of the cell lysis reagent Triton™ and the substrate luciferin, luminescence of firefly luciferase is measured in a luminometer.
as §3

T2 sequence (P30518 whole entry): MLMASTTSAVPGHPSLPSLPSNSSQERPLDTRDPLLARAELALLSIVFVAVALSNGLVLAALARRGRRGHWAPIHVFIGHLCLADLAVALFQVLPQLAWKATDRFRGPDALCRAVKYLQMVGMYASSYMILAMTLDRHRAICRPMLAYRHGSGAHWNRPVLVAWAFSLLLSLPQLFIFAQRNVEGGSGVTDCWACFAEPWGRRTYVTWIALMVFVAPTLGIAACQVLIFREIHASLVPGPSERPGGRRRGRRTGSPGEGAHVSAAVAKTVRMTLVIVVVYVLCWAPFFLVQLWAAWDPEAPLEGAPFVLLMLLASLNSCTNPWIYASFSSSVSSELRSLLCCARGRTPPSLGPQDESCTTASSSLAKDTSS
T1 sequence (P37288 whole entry): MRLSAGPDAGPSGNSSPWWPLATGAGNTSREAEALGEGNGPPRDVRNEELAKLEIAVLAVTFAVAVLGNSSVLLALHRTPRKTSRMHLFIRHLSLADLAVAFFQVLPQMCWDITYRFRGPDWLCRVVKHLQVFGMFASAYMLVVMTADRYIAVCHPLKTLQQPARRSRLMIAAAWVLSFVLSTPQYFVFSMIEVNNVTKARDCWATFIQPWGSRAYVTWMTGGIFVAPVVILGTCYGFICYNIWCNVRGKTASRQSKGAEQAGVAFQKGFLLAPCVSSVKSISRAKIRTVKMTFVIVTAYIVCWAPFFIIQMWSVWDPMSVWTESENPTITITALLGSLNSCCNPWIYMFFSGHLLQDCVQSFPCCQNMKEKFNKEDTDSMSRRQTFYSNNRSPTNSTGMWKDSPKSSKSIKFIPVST

For orientation: IC50 means the concentration that inhibits the measured activity by half. Consider `CC1(CNC(=O)c2ccccc2-n2cnc(Cn3nc(-c4ccc(Cl)cc4)n(C[C@H](O)C(F)(F)F)c3=O)n2)CCCO1` (mixture of isomers) [Example 202, 2-[3-({3-(4-Chlorophenyl)-5-oxo-4-[(2S)-3,3,3-trifluoro-2-hydroxypropyl]-4,5-dihydro-1H-1,2,4-triazol-1-yl}methyl)-1H-1,2,4-triazol-1-yl]-N-{[2-methyltetrahydrofuran-2-yl]methyl}benzamide], for which, at human V1a receptor, the half-inhibitory concentration (IC50) was 4.3 nM and the “ratio IC50 hV2/hV1a” value amounted to 0.9. Besides, the half-inhibitory concentration (IC50) on human V2 receptor came out at 4.05 nM.
For `CCC(C)NC(=O)c1ccccc1-n1cnc(Cn2nc(-c3ccc(Cl)cc3)n(C[C@H](O)C(F)(F)F)c2=O)n1` (mixture of isomers) [Example 204, N-[Butan-2-yl]-2-[3-({3-(4-chlorophenyl)-5-oxo-4-[(2S)-3,3,3-trifluoro-2-hydroxypropyl]-4,5-dihydro-1H-1,2,4-triazol-1-yl}methyl)-1H-1,2,4-triazol-1-yl]benzamide] the same measures were 1.25 nM, 92.0 and 115 nM.
For `O=C(NC1CCOC1)c1ccccc1-n1cnc(Cn2nc(-c3ccc(Cl)cc3)n(C[C@H](O)C(F)(F)F)c2=O)n1` (mixture of isomers) [Example 208, 2-[3-({3-(4-Chlorophenyl)-5-oxo-4-[(2S)-3,3,3-trifluoro-2-hydroxypropyl]-4,5-dihydro-1H-1,2,4-triazol-1-yl}methyl)-1H-1,2,4-triazol-1-yl]-N-[tetrahydrofuran-3-yl]benzamide] the same measures were 2.4 nM, 39.8 and 95.5 nM.
For the compound `CC1CCCC(NC(=O)c2ccccc2-n2cnc(Cn3nc(-c4ccc(Cl)cc4)n(C[C@H](O)C(F)(F)F)c3=O)n2)C1` (mixture of isomers) [Example 224, 2-[3-({3-(4-Chlorophenyl)-5-oxo-4-[(2S)-3,3,3-trifluoro-2-hydroxypropyl]-4,5-dihydro-1H-1,2,4-triazol-1-yl}methyl)-1H-1,2,4-triazol-1-yl]-N-(3-methylcyclohexyl)benzamide], on human V1a receptor, the IC50 is 12.6 nM and the “ratio IC50 hV2/hV1a” value worked out at 11.5. Moreover, at human V2 receptor, the IC50 worked out at 145 nM.
The like results for `O=C(NC1CCOC1=O)c1ccccc1-n1cnc(Cn2nc(-c3ccc(Cl)cc3)n(C[C@H](O)C(F)(F)F)c2=O)n1` (mixture of isomers) [Example 231, 2-[3-({3-(4-Chlorophenyl)-5-oxo-4-[(2S)-3,3,3-trifluoro-2-hydroxypropyl]-4,5-dihydro-1H-1,2,4-triazol-1-yl}methyl)-1H-1,2,4-triazol-1-yl]-N-[(3S)-2-oxotetrahydrofuran-3-yl]benzamide] were, in that order, 3.05 nM, 254.1 and 775 nM.
For `COC1CCCN(C(=O)c2ccccc2-n2cnc(Cn3nc(-c4ccc(Cl)cc4)n(C[C@H](O)C(F)(F)F)c3=O)n2)C1` (mixture of isomers) [Example 269, 5-(4-Chlorophenyl)-2-{[1-(2-{[3-methoxypiperidin-1-yl]carbonyl}phenyl)-1H-1,2,4-triazol-3-yl]methyl}-4-[(2S)-3,3,3-trifluoro-2-hydroxypropyl]-2,4-dihydro-3H-1,2,4-triazol-3-one] the same measures were 2.5 nM, 422.0 and 1050 nM.
For `CC1SCCN1C(=O)c1ccccc1-n1cnc(Cn2nc(-c3ccc(Cl)cc3)n(C[C@H](O)C(F)(F)F)c2=O)n1` (mixture of isomers) [Example 270, 5-(4-Chlorophenyl)-2-{[1-(2-{[2-methyl-1,3-thiazolidin-3-yl]carbonyl}phenyl)-1H-1,2,4-triazol-3-yl]methyl}-4-[(2S)-3,3,3-trifluoro-2-hydroxypropyl]-2,4-dihydro-3H-1,2,4-triazol-3-one] the same measures were 2.1 nM, 685.7 and 1440 nM.
Regarding `CN1CCC(N(C)C(=O)c2ccccc2-n2cnc(Cn3nc(-c4ccc(Cl)cc4)n(C[C@H](O)C(F)(F)F)c3=O)n2)C1` (mixture of isomers) [Example 274, 2-[3-({3-(4-Chlorophenyl)-5-oxo-4-[(2S)-3,3,3-trifluoro-2-hydroxypropyl]-4,5-dihydro-1H-1,2,4-triazol-1-yl}methyl)-1H-1,2,4-triazol-1-yl]-N-methyl-N-[1-methylpyrrolidin-3-yl]benzamide], on human V1a receptor, the IC50 came out at 22 nM and the “ratio IC50 hV2/hV1a” value worked out at 438.6. Further, at human V2 receptor, the IC50 came to 9650 nM.
Turning to `CC1CCCN(C(=O)c2ccccc2-n2cnc(Cn3nc(-c4ccc(Cl)cc4)n(C[C@H](O)C(F)(F)F)c3=O)n2)C1C` (mixture of isomers) [Example 275, 5-(4-Chlorophenyl)-2-[(1-{2-[(2,3-dimethylpiperidin-1-yl)carbonyl]phenyl}-1H-1,2,4-triazol-3-yl)methyl]-4-[(2S)-3,3,3-trifluoro-2-hydroxypropyl]-2,4-dihydro-3H-1,2,4-triazol-3-one], the results for the IC50 on human V1a receptor and on human V2 receptor were 2.55 nM and 1240 nM, respectively. For the same compound, the “ratio IC50 hV2/hV1a” value at human V1a receptor amounted to 484.3.
For `CC1C(=O)NCCN1C(=O)c1ccccc1-n1cnc(Cn2nc(-c3ccc(Cl)cc3)n(C[C@H](O)C(F)(F)F)c2=O)n1` (mixture of isomers) [Example 280, 4-{2-[3-({3-(4-Chlorophenyl)-5-oxo-4-[(2S)-3,3,3-trifluoro-2-hydroxypropyl]-4,5-dihydro-1H-1,2,4-triazol-1-yl}methyl)-1H-1,2,4-triazol-1-yl]benzoyl}-3-methylpiperazin-2-one] the same measures were 78.5 nM, 10100 nM and 129.3.
In the case of `CC1COCCN1C(=O)c1ccccc1-n1cnc(Cn2nc(-c3ccc(Cl)cc3)n(C[C@H](O)C(F)(F)F)c2=O)n1` (mixture of isomers) [Example 282, 5-(4-Chlorophenyl)-2-{[1-(2-{[3-methylmorpholin-4-yl]carbonyl}phenyl)-1H-1,2,4-triazol-3-yl]methyl}-4-[(2S)-3,3,3-trifluoro-2-hydroxypropyl]-2,4-dihydro-3H-1,2,4-triazol-3-one], at human V1a receptor, the IC50 turned out to be 2.35 nM and the “ratio IC50 hV2/hV1a” value is 1000.0. Moreover, the IC50 at human V2 receptor was found to be 2350 nM.
For `CC1CN(C(=O)c2ccccc2-n2cnc(Cn3nc(-c4ccc(Cl)cc4)n(C[C@H](O)C(F)(F)F)c3=O)n2)CCO1` (mixture of isomers) [Example 283, 5-(4-Chlorophenyl)-2-{[1-(2-{[2-methylmorpholin-4-yl]carbonyl}phenyl)-1H-1,2,4-triazol-3-yl]methyl}-4-[(2S)-3,3,3-trifluoro-2-hydroxypropyl]-2,4-dihydro-3H-1,2,4-triazol-3-one] the same measures were 6.05 nM, 1239.7 and 7500 nM.
For `CC(O)CNC(=O)c1ccccc1-n1cnc(Cn2nc(-c3ccc(Cl)cc3)n(C[C@H](O)C(F)(F)F)c2=O)n1` (mixture of isomers) [Example 292, 2-[3-({3-(4-Chlorophenyl)-5-oxo-4-[(2S)-3,3,3-trifluoro-2-hydroxypropyl]-4,5-dihydro-1H-1,2,4-triazol-1-yl}methyl)-1H-1,2,4-triazol-1-yl]-N-[2-hydroxypropyl]benzamide] the same measures were 2.95 nM, 21.9 and 64.5 nM.
